What was measured:
CD3+CD4+ T cells = assay: IFN-γ expression in CD4+ T lymphocytes; assay type: cell-based, C57BL/6 mice; settings: spleen cells; actein 62.5 ng/mL, deoxyactein 250 ng/mL; PMA + ionomycin 5 h; PMA + ionomycin group 3.8 ± 0.6
Protocol: (§1) Test materials: CD3-PE antibodies were purchased from BD Company in the United States, and CD4-FITC and CD8-PerCP antibodies were purchased from eBioscience Company; the remaining required reagents were the same as those in Experimental Example 9.
(§2) Animal: C57BL/6 mice, purchased from Beijing Huafukang Biotechnology Co., Ltd.
(§3) Preparation of spleen single cell suspension: after anesthesia of C57BL/6 mice, isolated the spleen of the mouse, placed the spleen in a sterile petri dish with 4 mL of PBEB added, grinded the spleen with a glass frosted surface, and filtered with a sterile 400 mesh filter. The spleen cells were placed in a flow tube, and the supernatant was discarded after centrifugation. After adding 2 mL of RBC Lysis Buffer to lyse at room temperature for 15 minutes, the supernatant was discarded by centrifugation to harvest the spleen cells. Then added 1.5 mL of complete medium containing 10% FBS, 1% glutamine, and 1% double antibiotics (anti-penicillin, anti-streptomycin), and mixed well by repeated pipetting.
(§4) Drug treatment and intracellular staining after T cell induction activation: cells were treated with 62.5 ng/mL actein and 250 ng/mL deoxyactein in a medium concentration, and Cell Stimulation Cocktail (containing PMA, ionomycin and protein transport inhibitor) was added to stimulate the cells for 5 h. […]

[1] = tested on: ConA hepatitis mouse model; assay: Survival rate of ConA hepatitis mouse model; assay type: in vivo, C57BL/6 mice; settings: ConA 25 mg/kg i.v.; 96-hour observation; gavage, extract 15 mg/kg, actein and deoxyactein 5 mg/kg; model group 10%
Protocol: Test materials: ConA was purchased from Sigma; actein and deoxyactein were purchased from ChromaDex, USA.
as §2
Grouping: 40 C57BL/6 mice, male, 18-20 g, after 1 day of adaptive breeding, mice were randomly divided into 4 groups of 10 animals in each group: ConA model group, triterpenoid saponin group, actein group, and deoxyactein group.
Model preparation and drug administration: weighed 150 mg of ConA powder, dissolved it in 40 mL of sterile PBS, left it at room temperature for 1 to 2 hours, and continued to gently shake intermittently to mix well. Low temperature ultrasound was used to improve dissolution (no more than 5 min each time) and avoided excessive foaming. After it was fully dissolved, the volume was adjusted to 50 mL to a concentration of 3 mg/mL and filtered the solution under pressure with a 0.45 μm filter. Mice were given a single intravenous injection at 25 mg/kg, with 100 μL per mouse. Took 4 mg of actein and deoxyactein, added 10 ml of sterile double-distilled water to dissolve to a concentration of 0.4 mg/mL. […]

CD3+CD8+ T cells = assay: IFN-γ expression in CD8+ T lymphocytes; assay type: cell-based, C57BL/6 mice; settings: spleen cells; actein 62.5 ng/mL, deoxyactein 250 ng/mL; PMA + ionomycin 5 h; PMA + ionomycin group 14.5 ± 1.0
Protocol: as §1, §2, §3, §4

[2] = tested on: ConA hepatitis mouse model; assay: Serum ALT and AST in ConA hepatitis mouse model; assay type: in vivo, C57BL/6 mice; settings: serum 10 hours after ConA 15 mg/kg i.v.; gavage, extract 15 mg/kg, actein/deoxyactein 5 mg/kg; MEAN ± SEM
Protocol: The test materials and animals were the same as those in Experimental Example 1.
(§5) Grouping: C57BL/6 mice, male, 18-20 g, after 1 day of adaptive breeding, randomly divided into 5 groups: normal control group, ConA model group, triterpenoid saponin group, actein group and deoxyactein group.
(§6) Model preparation and drug administration: except the normal control group, mice were injected intravenously at a dose of ConA 15 mg/kg. The dosage of each group was the same as that of Experimental Example 1.
(1) The effects of drug administration in each group on serum ALT and AST of ConA mice were measured. Eight mice in each group were sacrificed under anesthesia 10 hours after ConA injection. Peripheral blood was taken, and serum was separated to detect ALT and AST.

[3] = tested on: serum cytokines TNF-α, IL-12, IL-6, MCP-1, IFN-γ; assay: Serum inflammatory cytokine secretion in ConA mouse model; assay type: in vivo, C57BL/6 mice; settings: MEAN ± SEM; for IL-6 / IL-12 / MCP-1 / TNF-α: serum 3 hours after ConA injection; for IFN-γ: serum 10 hours after ConA injection
Protocol: as §5, §6
(3) The effect of each group of drugs on serum cytokine secretion of ConA mice was examined. Six mice in each group. Peripheral blood was collected 3 hours after ConA injection and serum was separated to detect the secretion of cytokines TNF-α, IL-12, IL-6 and MCP-1. Serum was separated 10 hours after ConA injection to detect cell factor IFN-γ secretion.

[4] = tested on: ConA hepatitis mouse model; assay: Liver pathological damage in ConA hepatitis mouse model (HE staining); assay type: in vivo, C57BL/6 mice; settings: liver 10 hours after ConA 15 mg/kg; compared with the ConA group
Protocol: as §5, §6
(2) The effects of drug administration in each group on liver pathological damage in ConA mice were examined. Three mice in each group were sacrificed under anesthesia 10 hours after ConA injection. The left lobe of the liver was taken, cut into a size of about 5 mm3, and placed in 10% formalin solution, and dehydrated, transparently impregnated with wax, embedded, sliced, and spread, observed after staining;

[5] = tested on: CD45+CD3+NK1.1+ NKT cells; assay: IFN-γ expression in NKT cells; assay type: cell-based, C57BL/6 mice; settings: bone marrow cells; actein 62.5 ng/mL, deoxyactein 250 ng/mL; PMA + ionomycin 5 h; flow cytometry; PMA + ionomycin group 7.1 ± 0.7
From the text: Test material: same as Experimental Example 9.
Animal: C57BL/6 mice, purchased from Beijing Huafukang Biotechnology Co., Ltd
Bone marrow single cell suspension preparation: same as Experimental Example 9.
Drug treatment and intracellular staining after NKT cell induction activation: same as Experimental Example 9. Flow cytometry was used to detect the percentage of positive cells expressing IFN-γ in CD45^+CD3^+NK1.1^+ NKT cells.

CD45+CD3-NK1.1+ NK cells = assay: IFN-γ expression in NK cells; assay type: cell-based, C57BL/6 mice; settings: bone marrow cells; actein 62.5 ng/mL, deoxyactein 250 ng/mL; PMA + ionomycin 5 h; flow cytometry; PMA + ionomycin group 42.1 ± 2.7
Protocol: Test materials: CD45-PE, CD3-FITC, NK1.1-APC antibody, Intracellular Fixation & Permeabilization Buffer Set, and Cell Stimulation Cocktail were purchased from eBioscience.
as §2
Bone marrow single cell suspension preparation: after anesthesia of C57BL/6 mice, the 2 pairs of femur and tibia of the mouse were separated aseptically, the sterile bone marrow cells were pipetted into a sterile flow tube with a 2 mL syringe and sterile PBS to obtain bone marrow single cell suspension. After centrifugation, bone marrow cells were harvested, and 1.5 mL of complete medium containing 10% FBS, 1% glutamine, and 1% double antibiotics (anti-penicillin, anti-streptomycin) were added.
Intracellular staining after drug administration and NK cell induction activation: cells were treated with actein of intermediate concentration of 62.5 ng/mL and deoxyactein at a concentration of 250 ng/mL, and the cells were stimulated with Cell Stimulation Cocktail (containing PMA, ionomycin and protein transport inhibitors) for 5 h. Surface staining was performed with CD45-PE, CD3-FITC, NK1.1-APC antibodies, intracellular staining was performed with […] antibodies, and the percentage of positive cells expressing IFN-γ in CD45^+CD3^−NK1.1^+ NK cells was detected by flow cytometry.

[6] = tested on: mouse bone marrow-derived macrophages (BMDM); assay: IL-12 and TNF-α secretion by LPS-stimulated macrophages (BMDM); assay type: cell-based, C57BL/6 mice; settings: ELISA
From the text: Test materials: LPS was purchased from Sigma; actein and deoxyactein were purchased from American ChromaDex; FBS was purchased from American PAA; DMEM high glucose medium; macrophage colony-stimulating factor (M-CSF) was purchased from PeproTech company; ELISA kit was purchased from BD company of the United States.
as §2
Isolation and culture of mouse bone marrow-derived macrophages (BMDM): after anesthesia of C57BL/6 mice, the mouses 2 pairs of femur and tibia were aseptically separated, and the bone marrow cells were flushed into a sterile flow tube using a 2 mL syringe with sterile PBS. Repeatedly pipetted into a bone marrow single cell suspension. After centrifugation, bone marrow cells were harvested, and 10 mL of complete medium containing 10% FBS, 1% glutamine, 1% double antibiotics (anti-penicillin, anti-streptomycin), and 10 ng/mL M-CSF were added to […] cell culture dish to culture at 37° C. After 4 days, the above fresh medium was changed, and macrophages with large volume, adherent growth, and mature differentiation were observed under the microscope on the 7th day. The cells were scraped off with a cell scraper, and repeatedly blown and mixed to form a single cell suspension, and then seeded in a 96-well plate at 1×10^5 cells/well.
BMDM cells induced activation and drug treatment: BMDM cells were treated with different doses of actein and deoxyactein, and 100 ng/mL LPS was given to stimulate cells 1 h later to simulate the activation of macrophages by bacterial infection. The cell supernatant was collected 4 hours later, and cytokine secretion was detected by ELISA.

[7] = 2.5 ng/mL, LPS 100 ng/mL, 4 hours
[8] = 12.5 ng/mL, LPS 100 ng/mL, 4 hours
[9] = 62.5 ng/mL, LPS 100 ng/mL, 4 hours
[10] = 312.5 ng/mL, LPS 100 ng/mL, 4 hours
[11] = 25 ng/mL, LPS 100 ng/mL, 4 hours
[12] = 50 ng/mL, LPS 100 ng/mL, 4 hours
[13] = 125 ng/mL, LPS 100 ng/mL, 4 hours
[14] = 250 ng/mL, LPS 100 ng/mL, 4 hours
[15] = 500 ng/mL, LPS 100 ng/mL, 4 hours

Compound | IFN-γ+ (%), CD4+T cell (CD3+CD4+ T cells) [%] | survival rate [1] [%] | IFN-γ+ (%), CD8+T cell (CD3+CD8+ T cells) [%] | ALT [2] [U/L] | AST [2] [U/L] | IL-6 [3] [pg/mL] | IL-12 [3] [pg/mL] | MCP-1 [3] [pg/mL] | TNF-α [3] [pg/mL] | IFN-γ [3] [pg/mL] | liver pathological damage (HE staining, FIG. 2) [4] | IFN-γ+ [5] [%] | IFN-γ+ (CD45+CD3-NK1.1+ NK cells) [%] | also measured
CC(=O)O[C@@H]1C[C@@]23C[C@@]24CC[C@H](O[C@@H]2OC[C@@H](O)[C@H](O)[C@H]2O)C(C)(C)[C@@H]4CC[C@H]3[C@]2(C)C[C@@H]3O[C@]4(C[C@@H](C)[C@@H]3[C@@]12C)O[C@H](O)[C@@]1(C)O[C@@H]41 [Actein, actein] | 3.1 ± 0.6 | 60 | 14.3 ± 0.7 | 39.8 ± 11.1 | 212 ± 33 | 792 ± 48 | 22 ± 1.9 | 1832 ± 209.7 | 173 ± 18.2 | 116.2 ± 34.8 | large pieces of hepatocyte necrosis was significantly reduced and leukocyte infiltration was reduced | 3.5 ± 0.6 | 33.0 ± 2.2 | IL-12 ([6]; 0.5 ng/mL, LPS 100 ng/mL 1 h later, supernatant after 4 hours, LPS group 226.6 ± 26.6): 194.5 ± 22.3 pg/mL; TNF-α ([6]; 0.5 ng/mL, LPS 100 ng/mL 1 h later, supernatant after 4 hours, LPS group 2891 ± 57): 2555 ± 62.3 pg/mL; IL-12 [6, 7]: 136.3 ± 22.8 pg/mL; TNF-α [6, 7]: 2483 ± 77.3 pg/mL; IL-12 [6, 8]: 88.5 ± 10.6 pg/mL; TNF-α [6, 8]: 2327 ± 77.3 pg/mL; IL-12 [6, 9]: 48.2 ± 21.4 pg/mL; TNF-α [6, 9]: 2056 ± 49.2 pg/mL; IL-12 [6, 10]: 8 ± 0.8 pg/mL; TNF-α [6, 10]: 2062 ± 49 pg/mL
CC(=O)O[C@@H]1C[C@@]23C[C@@]24CC[C@H](O[C@@H]2OC[C@@H](O)[C@H](O)[C@H]2O)C(C)(C)[C@@H]4CC[C@H]3[C@]2(C)C[C@@H]3O[C@]4(C[C@@H](C)[C@@H]3[C@@]12C)OC[C@@]1(C)O[C@@H]41 [Deoxyactein, deoxyactein] | 2.0 ± 0.7 | 40 | 12.1 ± 1.3 | 144.4 ± 68.5 | 390.8 ± 98.2 | 1406 ± 134.1 | 190.5 ± 22.5 | 4741 ± 665.7 | 394.4 ± 41.8 | 245.3 ± 56 | large pieces of hepatocyte necrosis was significantly reduced and leukocyte infiltration was reduced | 2.2 ± 0.4 | 29.5 ± 3.5 | IL-12 [6, 11]: 244 ± 2.8 pg/mL; TNF-α [6, 11]: 2529 ± 121.3 pg/mL; IL-12 [6, 12]: 177.8 ± 12.5 pg/mL; TNF-α [6, 12]: 2321 ± 97.4 pg/mL; IL-12 [6, 13]: 142.3 ± 6.8 pg/mL; TNF-α [6, 13]: 2440 ± 84.8 pg/mL; IL-12 [6, 14]: 88.1 ± 22.3 pg/mL; TNF-α [6, 14]: 2305 ± 76.8 pg/mL; IL-12 [6, 15]: 42.2 ± 23.7 pg/mL; TNF-α [6, 15]: 2077 ± 43.8 pg/mL

— US11052099B2, “Use of cimicifugae rhizoma triterpenoid saponin extract, actein, and deoxyactein” (BEIJING DITAN HOSPITAL, CAPITAL MEDICAL UNIVERSITY, priority 2017, dated 2021)
